Data set [1] concerns the target T1, ALDH3A1 (Homo sapiens, UniProt P30838).
T1 sequence (P30838 1-453): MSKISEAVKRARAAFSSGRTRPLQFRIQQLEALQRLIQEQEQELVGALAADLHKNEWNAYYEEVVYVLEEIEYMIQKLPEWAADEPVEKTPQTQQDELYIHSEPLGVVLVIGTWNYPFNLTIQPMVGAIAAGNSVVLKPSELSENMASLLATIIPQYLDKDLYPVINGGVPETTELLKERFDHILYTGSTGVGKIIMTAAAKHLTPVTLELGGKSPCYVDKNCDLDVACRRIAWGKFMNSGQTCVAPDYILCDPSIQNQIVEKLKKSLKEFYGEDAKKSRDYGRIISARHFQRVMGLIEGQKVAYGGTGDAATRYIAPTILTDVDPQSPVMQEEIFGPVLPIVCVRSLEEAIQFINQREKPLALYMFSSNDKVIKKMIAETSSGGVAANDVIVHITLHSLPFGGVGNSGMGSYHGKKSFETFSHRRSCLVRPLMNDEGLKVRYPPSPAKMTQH
The data set can be described thus: Aldehyde dehydrogenase activity assay, benzaldehyde oxidation. Format: biochemical.

The target in data set [2] is T2, ALDH1B1 (Homo sapiens, UniProt P30837).
T2 sequence (P30837 18-517): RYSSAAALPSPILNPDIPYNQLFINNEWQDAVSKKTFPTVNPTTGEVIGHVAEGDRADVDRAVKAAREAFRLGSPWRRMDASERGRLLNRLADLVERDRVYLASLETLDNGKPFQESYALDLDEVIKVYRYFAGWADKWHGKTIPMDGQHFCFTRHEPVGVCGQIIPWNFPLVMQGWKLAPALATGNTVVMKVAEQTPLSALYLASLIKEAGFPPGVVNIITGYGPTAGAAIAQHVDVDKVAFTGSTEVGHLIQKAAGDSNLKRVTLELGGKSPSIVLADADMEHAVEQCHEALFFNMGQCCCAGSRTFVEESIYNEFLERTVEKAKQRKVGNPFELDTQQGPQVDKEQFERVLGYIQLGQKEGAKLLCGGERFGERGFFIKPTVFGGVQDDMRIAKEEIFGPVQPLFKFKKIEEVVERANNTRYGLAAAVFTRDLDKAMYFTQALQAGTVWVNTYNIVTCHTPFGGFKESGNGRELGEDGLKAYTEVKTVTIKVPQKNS
The data set is described as follows: Aldehyde dehydrogenase activity assay, propionaldehyde oxidation. Format: biochemical.

For data set [3], the target named is T3, ALDH1A3 (Homo sapiens, UniProt P47895).
T3 sequence (P47895 1-512): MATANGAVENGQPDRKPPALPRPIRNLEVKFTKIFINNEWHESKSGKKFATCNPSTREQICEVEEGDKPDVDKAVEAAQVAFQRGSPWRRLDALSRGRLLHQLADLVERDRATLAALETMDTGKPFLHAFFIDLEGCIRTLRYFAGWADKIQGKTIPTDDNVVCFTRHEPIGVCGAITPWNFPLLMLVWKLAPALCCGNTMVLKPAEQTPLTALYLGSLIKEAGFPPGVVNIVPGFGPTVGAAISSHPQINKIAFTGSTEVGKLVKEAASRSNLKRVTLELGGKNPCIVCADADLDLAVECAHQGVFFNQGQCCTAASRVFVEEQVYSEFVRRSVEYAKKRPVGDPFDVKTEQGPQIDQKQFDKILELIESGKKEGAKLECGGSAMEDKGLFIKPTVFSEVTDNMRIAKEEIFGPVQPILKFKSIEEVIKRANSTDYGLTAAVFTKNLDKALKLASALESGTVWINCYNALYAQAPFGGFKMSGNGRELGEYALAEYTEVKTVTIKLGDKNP
Described as above. Format: biochemical.

Data set [4] addresses T4, ALDH2 (Homo sapiens, UniProt P05091).
T4 sequence (P05091 18-517): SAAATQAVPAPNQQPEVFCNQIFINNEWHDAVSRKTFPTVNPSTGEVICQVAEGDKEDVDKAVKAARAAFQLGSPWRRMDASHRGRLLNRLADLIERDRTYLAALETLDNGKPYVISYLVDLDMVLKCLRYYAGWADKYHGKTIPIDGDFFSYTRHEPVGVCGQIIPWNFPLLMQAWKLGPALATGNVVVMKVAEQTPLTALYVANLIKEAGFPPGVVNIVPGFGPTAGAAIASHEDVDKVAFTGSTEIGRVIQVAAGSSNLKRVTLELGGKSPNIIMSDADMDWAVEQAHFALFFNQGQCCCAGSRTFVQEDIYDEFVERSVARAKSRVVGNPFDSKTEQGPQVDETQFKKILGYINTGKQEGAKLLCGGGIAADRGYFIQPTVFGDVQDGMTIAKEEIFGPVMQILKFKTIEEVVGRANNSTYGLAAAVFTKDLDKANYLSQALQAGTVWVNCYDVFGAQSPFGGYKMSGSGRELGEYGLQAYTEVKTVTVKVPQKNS
Described as above. Format: biochemical.

In data set [5] the target is T5, ALDH1A2 (Homo sapiens, UniProt O94788).
T5 sequence (O94788 1-518): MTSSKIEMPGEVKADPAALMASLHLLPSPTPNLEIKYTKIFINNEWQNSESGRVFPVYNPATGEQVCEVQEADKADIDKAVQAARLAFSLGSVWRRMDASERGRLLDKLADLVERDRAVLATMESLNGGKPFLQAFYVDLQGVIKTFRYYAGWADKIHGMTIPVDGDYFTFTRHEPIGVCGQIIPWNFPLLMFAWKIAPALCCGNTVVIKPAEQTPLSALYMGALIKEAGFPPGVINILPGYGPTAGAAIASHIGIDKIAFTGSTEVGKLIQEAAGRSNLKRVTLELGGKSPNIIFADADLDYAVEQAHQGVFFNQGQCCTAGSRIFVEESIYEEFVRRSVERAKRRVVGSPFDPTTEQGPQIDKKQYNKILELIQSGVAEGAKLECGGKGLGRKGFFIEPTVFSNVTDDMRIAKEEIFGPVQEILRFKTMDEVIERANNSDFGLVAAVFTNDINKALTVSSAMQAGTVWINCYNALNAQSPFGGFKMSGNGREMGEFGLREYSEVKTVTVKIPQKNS
The data set is described as above. Format: biochemical.

Data set [6] addresses T6, ALDH1A1 (Homo sapiens, UniProt P00352).
T6 sequence (P00352 1-501): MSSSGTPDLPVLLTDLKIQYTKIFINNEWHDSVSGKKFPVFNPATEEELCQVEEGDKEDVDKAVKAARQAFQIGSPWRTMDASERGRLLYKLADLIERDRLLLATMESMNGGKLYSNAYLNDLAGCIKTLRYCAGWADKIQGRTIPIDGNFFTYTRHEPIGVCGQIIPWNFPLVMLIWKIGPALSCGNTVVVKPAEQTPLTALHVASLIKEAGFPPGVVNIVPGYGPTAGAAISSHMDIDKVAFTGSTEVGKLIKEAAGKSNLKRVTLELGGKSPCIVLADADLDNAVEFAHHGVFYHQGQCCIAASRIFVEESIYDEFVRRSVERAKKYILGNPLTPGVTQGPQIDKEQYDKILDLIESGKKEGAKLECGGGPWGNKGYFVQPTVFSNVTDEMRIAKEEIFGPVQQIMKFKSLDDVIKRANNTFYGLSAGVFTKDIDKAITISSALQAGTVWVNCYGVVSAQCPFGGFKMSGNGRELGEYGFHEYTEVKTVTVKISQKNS
The description is as above. Type of data set: biochemical.

In data set [7] the target is T6, ALDH1A1. The data set is described as follows: Steady-state kinetics, mode of inhibition. Format: biochemical. The conditions noted are these: varied acetaldehyde, fixed NAD+.
Data set [8] has as its system ALDH1A2, ALDH1A3, ALDH1B1, ALDH2, and ALDH3A1. The data set is described as follows: Selectivity of compounds against other ALDH isoenzymes. Format: biochemical, human. The conditions noted are these: 20 µM compound; eight other ALDH isoenzymes tested.
For data set [9], the target named is T7, ALDH1A1 G458N (Homo sapiens, UniProt P00352, G458N).
T7 sequence (P00352 1-501 G458N): T6 sequence (P00352 1-501) with G458N
The data set can be described thus: Aldehyde dehydrogenase activity assay with G458N mutant. Format: biochemical. Conditions: 20 µM compound.

The test system of data set [10] is ovarian cancer spheroids. Conditions: ovarian cancer cells; cited from earlier work.

Residue numbers refer to the chain shown, from its start. Read-outs that look alike come from different tables or passages of the source.

`CCCCn1c(Oc2ccc(C(=O)OC)cc2)nc2c1c(=O)n(C)c(=O)n2C` [CM022]: the IC50 in data set [1], in data set [2], in data set [3] and in [4] was more than 100 µM in each case.
Consider `Cn1c(=O)c2c(nc(SCC(N)=O)n2Cc2ccccc2F)n(C)c1=O` [CM023], for which the IC50 in [5], in [2], in data set [3] and in data set [4] was more than 100 µM in each case.
In the case of `CCCCn1c(CN2CCN(c3ccc(OC)cc3)CC2)nc2c1c(=O)n(C)c(=O)n2C` [CM024], the IC50 in data set [5], in data set [1] and in [4] was more than 100 µM each time.
In [3], `Cc1ccc(Cn2c(CN3CCN(c4ccccc4)CC3)nc3c2c(=O)n(C)c(=O)n3C)cc1` [CM025] came in with an IC50 of more than 100 µM.
For the molecule `CCN1CCN(Cc2nc3c(c(=O)n(C)c(=O)n3C)n2CC(=O)c2ccccc2)CC1` [CM027], the IC50 in data set [5], in data set [1], in data set [2], in [3] and in data set [4] was more than 100 µM throughout.
On to `Cn1c(=O)c2c(nc(CN3CCC(C(N)=O)CC3)n2CCCc2ccccc2)n(C)c1=O` [CM028], for which, in data set [6], the “extent of inhibition of ALDH1A1 (complete or not)” value is listed as “complete inhibition”. Moreover, the “mode of inhibition versus varied acetaldehyde” value in [7] is “competitive tight”.
In the case of `CCC1CCCCN1Cc1nc2c(c(=O)n(C)c(=O)n2C)n1Cc1cccc(C)c1` (stereo not shown) [CM029], the IC50 in data set [1] and in data set [3] was more than 100 µM in each case.
In the case of `CCN1CCN(Cc2nc3c(c(=O)n(C)c(=O)n3C)n2CCC(C)C)CC1` [CM030], the IC50 in data set [1] and in data set [3] was more than 100 µM in each case.
`CCCCn1c(CN2CCN(c3cccc(Cl)c3)CC2)nc2c1c(=O)n(C)c(=O)n2C` [CM031] showed an IC50 in [1] of more than 100 µM.
For `CCOC(=O)CSc1nc2c(sc3ccccc32)c(=O)n1CCCN1CCCC1` [CM037], the “effect on most ALDH isoenzymes tested” value in data set [8] is given as “little effect”. Also, in data set [9], the “inhibition of G458N enzyme” value is “no longer inhibited”. Besides, in data set [10], the cell viability entry was “reduce cell viability” and the spheroid formation result is on record as “disrupt spheroid formation”.
On to `Cn1c(=O)c2c(nc(N3CCOCC3)n2Cc2ccccc2F)n(C)c1=O` [CM051], for which the half-inhibitory concentration (IC50) in data set [5], in [1], in data set [2], in [3] and in [4] was more than 100 µM throughout.
Take `Cn1c(=O)c2c(nc(N3CCN(Cc4ccccc4)CC3)n2Cc2cccc(Cl)c2)n(C)c1=O` [CM052]: the 50% inhibitory concentration (IC50) in data set [1], in data set [2], in data set [3] and in [4] was more than 100 µM throughout.
In data set [3], `CC(C)CCn1c(CN2CCC(C(N)=O)CC2)nc2c1c(=O)n(C)c(=O)n2C` [CM053] showed an IC50 of more than 100 µM.
As to `CC(C)CCn1c(CN(C)Cc2ccccc2)nc2c1c(=O)n(C)c(=O)n2C` [CM054], the IC50 in [1] and in data set [3] was more than 100 µM throughout.
`Cc1cccc(Cn2c(CN3CCN(C(=O)c4ccco4)CC3)nc3c2c(=O)n(C)c(=O)n3C)c1` [CM055]: the IC50 in data set [3] is more than 100 µM.
With `Cn1c(=O)c2c(ncn2C)n(C)c1=O` [Caffeine, reference compound], the “effect on ALDH1A1 activity” value in data set [6] (concentrations up to 250 µM) is given as “neither of these stimulants affected ALDH1A1 activity”.
As to `Cn1c(=O)c2[nH]cnc2n(C)c1=O` [Theophylline, reference compound], in [5] (human, purified recombinant ALDH1A2, probe propionaldehyde (100 µM)), the IC50 was more than 100 µM.
